Laboratory results reported in patent US20180237441A1, “Chemical Compounds” (GlaxoSmithKline Intellectual Property (No.2) Limited, priority 2015, published 2018).
Read-outs that look alike come from different tables or passages of the source.

Tests used:
[1] = system: prion infected mice; details: cited from earlier work
[2] = target: T1, PERK (Homo sapiens, UniProt Q9NZJ5); assay: PERK enzyme assay (HTRF); assay type: biochemical; details: at least one experimental run
T1 sequence (Q9NZJ5 30-1116): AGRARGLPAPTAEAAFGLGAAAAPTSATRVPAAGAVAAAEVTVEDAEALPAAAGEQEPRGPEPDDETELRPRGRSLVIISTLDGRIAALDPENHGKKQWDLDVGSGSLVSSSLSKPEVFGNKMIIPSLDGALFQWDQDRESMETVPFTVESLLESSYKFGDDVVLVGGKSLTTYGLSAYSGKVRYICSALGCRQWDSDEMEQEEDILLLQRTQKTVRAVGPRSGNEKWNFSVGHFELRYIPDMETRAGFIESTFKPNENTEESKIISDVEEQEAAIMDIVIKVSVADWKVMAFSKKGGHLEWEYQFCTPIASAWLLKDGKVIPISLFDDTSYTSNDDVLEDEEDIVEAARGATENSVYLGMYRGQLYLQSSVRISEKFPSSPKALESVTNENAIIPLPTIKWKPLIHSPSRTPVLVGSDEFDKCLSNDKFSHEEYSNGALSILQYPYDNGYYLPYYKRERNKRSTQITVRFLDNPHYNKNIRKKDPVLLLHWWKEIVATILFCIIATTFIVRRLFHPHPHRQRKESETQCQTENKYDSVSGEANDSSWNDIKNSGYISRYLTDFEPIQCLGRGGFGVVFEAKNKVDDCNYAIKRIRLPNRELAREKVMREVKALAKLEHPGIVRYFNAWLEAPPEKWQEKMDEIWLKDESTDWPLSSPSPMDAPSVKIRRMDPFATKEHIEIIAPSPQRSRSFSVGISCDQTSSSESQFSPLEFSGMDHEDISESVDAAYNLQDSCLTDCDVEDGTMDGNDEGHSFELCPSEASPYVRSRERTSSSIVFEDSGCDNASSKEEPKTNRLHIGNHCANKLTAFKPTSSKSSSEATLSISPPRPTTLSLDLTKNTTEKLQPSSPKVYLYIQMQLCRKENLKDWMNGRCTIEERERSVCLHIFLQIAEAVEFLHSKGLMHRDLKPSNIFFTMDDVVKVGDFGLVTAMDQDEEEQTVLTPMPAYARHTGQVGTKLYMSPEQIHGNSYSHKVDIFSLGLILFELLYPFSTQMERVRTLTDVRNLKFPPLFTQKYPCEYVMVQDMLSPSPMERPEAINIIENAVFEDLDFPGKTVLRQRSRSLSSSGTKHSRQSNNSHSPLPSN
Outline: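 HTRF read-out after 2 h of EDTA-quenched reactions, detecting phospho-eIF2α with Eu/APC reagents, gave IC50 values. Reaction: 0.75 nM GST-PERK, 30–60 min compound pre-incubation (max 1% DMSO), then 60 min with 40 nM biotin-eIF2α and 500 μM ATP, HEPES pH 7.5 buffer.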

[3] = PERK Enzyme (500 μM ATP) IC50, read-out: PERK Activity
[4] = 500 μM ATP, read-out: PERK Enzyme (500 μM ATP) IC50

Row | Structure (SMILES) | neuroprotective effect and clinical signs of disease [1] | IC50 [2, 3] [nM] | IC50 [2, 4] [nM]
1 | Cn1cc(-c2ccc3c(c2)CCN3C(=O)Cc2cccc(C(F)(F)F)c2)c2c(N)ncnc21 [GSK2606414, 7-methyl-5-(1-{[3-(trifluoromethyl)phenyl]acetyl}-2,3-dihydro-1H-indol-5-yl)-7H-pyrrolo[2,3-d]pyrimidin-4-amine] | provide a neuroprotective effect and prevent clinical signs of disease |  | 
2 | COc1ccc(C2CN(c3ccc(-c4cn(C)c5nc(C)nc(N)c45)c(F)c3)C(=O)N2C)cc1 (stereo not drawn) [Example 64, 1-(4-(4-amino-2,7-dimethyl-7H-pyrrolo[2,3-d]pyrimidin-5-yl)-3-fluorophenyl)-4-(4-methoxyphenyl)-3-methylimidazolidin-2-one] |  | 100 to 1000 | 
3 | CCN1C(=O)N(c2ccc(-c3cn(C)c4ncnc(N)c34)c(F)c2)CC1c1cc(F)cc(Cl)c1 (stereo not drawn) [Example 27, 1-(4-(4-amino-7-methyl-7H-pyrrolo[2,3-d]pyrimidin-5-yl)-3-fluorophenyl)-4-(3-chloro-5-fluorophenyl)-3-ethylimidazolidin-2-one] |  | 100 to 1000 | 
4 | CN1C(=O)N(c2ccc(-c3cn(C)c4ncnc(N)c34)c(Cl)c2)CC1c1cc(F)cc(F)c1 (single isomer, unassigned) [Example 127, 1-(4-(4-amino-7-methyl-7H-pyrrolo[2,3-d]pyrimidin-5-yl)-3-chlorophenyl)-4-(3,5-difluorophenyl)-3-methylimidazolidin-2-one] |  | < 100 | 6.1
5 | CN1C(=O)N(c2ccc(-c3cn(C)c4ncnc(N)c34)cn2)CC1c1cc(F)ccc1F (stereo not drawn) [Example 40, 1-(5-(4-amino-7-methyl-7H-pyrrolo[2,3-d]pyrimidin-5-yl)pyridin-2-yl)-4-(2,5-difluorophenyl)-3-methylimidazolidin-2-one] |  | 100 to 1000 | 
6 | Cn1cc(-c2ccc(N3CC(C4CCCC4)CC3=O)cc2F)c2c(N)ncnc21 (stereo not drawn) [Example 28, 1-(4-(4-amino-7-methyl-7H-pyrrolo[2,3-d]pyrimidin-5-yl)-3-fluorophenyl)-4-cyclopentylpyrrolidin-2-one] |  | 100 to 1000 | 
7 | CN1C(=O)N(c2ccc(-c3cn(C4CC4)c4ncnc(N)c34)c(F)c2)CC1c1cc(F)c(F)cc1F (single isomer, unassigned) [Example 160, 1-(4-(4-amino-7-cyclopropyl-7H-pyrrolo[2,3-d]pyrimidin-5-yl)-3-fluorophenyl)-3-methyl-4-(2,4,5-trifluorophenyl)imidazolidin-2-one] |  | < 100 | 
8 | CCN1C(=O)N(c2ccc(-c3nn(C)c4ncnc(N)c34)c(F)c2)CC1c1ccc(F)cc1F (stereo not drawn) [Example 98, 1-(4-(4-amino-1-methyl-1H-pyrazolo[3,4-d]pyrimidin-3-yl)-3-fluorophenyl)-4-(2,4-difluorophenyl)-3-ethylimidazolidin-2-one] |  | 100 to 1000 | 
9 | CN1C(=O)N(c2ccc(-c3nn(C)c4ncnc(N)c34)c(F)c2)CC1c1ccc(F)cc1F (stereo not drawn) [Example 99, 1-(4-(4-amino-1-methyl-1H-pyrazolo[3,4-d]pyrimidin-3-yl)-3-fluorophenyl)-4-(2,4-difluorophenyl)-3-methylimidazolidin-2-one] |  | < 100 | 
10 | CCN1C(=O)N(c2ccc(-c3cn(C)c4ncnc(N)c34)c(F)c2)CC1c1cccc(F)c1F (stereo not drawn) [Example 75, 1-(4-(4-amino-7-methyl-7H-pyrrolo[2,3-d]pyrimidin-5-yl)-3-fluorophenyl)-4-(2,3-difluorophenyl)-3-ethylimidazolidin-2-one] |  | 100 to 1000 | 
11 | CC(C)n1cc(-c2ccc(N3CC(c4cc(F)ccc4F)N(C)C3=O)cc2F)c2c(N)ncnc21 (stereo not drawn) [Example 43, 1-(4-(4-amino-7-isopropyl-7H-pyrrolo[2,3-d]pyrimidin-5-yl)-3-fluorophenyl)-4-(2,5-difluorophenyl)-3-methylimidazolidin-2-one] |  | < 100 | 
12 | CN1C(=O)N(c2ccc(-c3cn(C4CC4)c4ncnc(N)c34)c(F)c2)CC1c1ccc(F)c(F)c1 (stereo not drawn) [Example 114, 1-(4-(4-amino-7-cyclopropyl-7H-pyrrolo[2,3-d]pyrimidin-5-yl)-3-fluorophenyl)-4-(3,4-difluorophenyl)-3-methylimidazolidin-2-one] |  | < 100 | 
13 | CCN1C(=O)N(c2ccc(-c3cn(C4CC4)c4ncnc(N)c34)c(F)c2)CC1c1cc(F)ccc1F (single isomer, unassigned) [Example 123, 1-(4-(4-amino-7-cyclopropyl-7H-pyrrolo[2,3-d]pyrimidin-5-yl)-3-fluorophenyl)-4-(2,5-difluorophenyl)-3-ethylimidazolidin-2-one] |  | 100 to 1000 | 
14 | CCN1C(=O)N(c2ccc(-c3cn(C)c4ncnc(N)c34)c(F)c2)CC1c1cc(F)cc(F)c1F (stereo not drawn) [Example 55, 1-(4-(4-amino-7-methyl-7H-pyrrolo[2,3-d]pyrimidin-5-yl)-3-fluorophenyl)-3-ethyl-4-(2,3,5-trifluorophenyl)imidazolidin-2-one] |  | 100 to 1000 | 
15 | Cn1cc(-c2ccc(N3CC(c4cc(F)ccc4F)N(Cc4ccccc4)C3=O)cc2F)c2c(N)ncnc21 (stereo not drawn) [Example 20, 1-(4-(4-amino-7-methyl-7H-pyrrolo[2,3-d]pyrimidin-5-yl)-3-fluorophenyl)-3-benzyl-4-(2,5-difluorophenyl)imidazolidin-2-one] |  | > 1000 | 3640
16 | CCN1C(=O)N(c2ccc(-c3cn(C)c4nc(C)nc(N)c34)c(F)c2)CC1c1cc(F)ccc1F (single isomer, unassigned) [Example 44, 1-(4-(4-amino-2,7-dimethyl-7H-pyrrolo[2,3-d]pyrimidin-5-yl)-3-fluorophenyl)-4-(2,5-difluorophenyl)-3-ethylimidazolidin-2-one] |  | < 100 | 
17 | CN1C(=O)N(c2ccc(-c3cn(C)c4ncnc(N)c34)c(F)c2)CC1C1CCCCC1 (single isomer, unassigned) [Example 62, 1-(4-(4-amino-7-methyl-7H-pyrrolo[2,3-d]pyrimidin-5-yl)-3-fluorophenyl)-4-cyclohexyl-3-methylimidazolidin-2-one] |  | < 100 | 
18 | CCN1C(=O)N(c2ccc(-c3cn(C4CC4)c4ncnc(N)c34)c(F)c2)CC1c1cc(F)ccc1F (single isomer, unassigned) [Example 124, 1-(4-(4-amino-7-cyclopropyl-7H-pyrrolo[2,3-d]pyrimidin-5-yl)-3-fluorophenyl)-4-(2,5-difluorophenyl)-3-ethylimidazolidin-2-one] |  | < 100 | 
19 | CN1C(=O)N(c2ccc(-c3cn(C4CC4)c4ncnc(N)c34)c(F)c2)CC1c1ccc(F)c(Cl)c1 (single isomer, unassigned) [Example 134, 1-(4-(4-amino-7-cyclopropyl-7H-pyrrolo[2,3-d]pyrimidin-5-yl)-3-fluorophenyl)-4-(3-chloro-4-fluorophenyl)-3-methylimidazolidin-2-one] |  | < 100 | 
